Measurements from US20230279020A9, “CARM1 INHIBITORS AND USES THEREOF” (Epizyme, Inc., priority 2013, published 2023).

Target: Human CARM1 (PRMT4) (Homo sapiens (Human), UniProt Q86X55)
Test: CARM1 enzyme assay on peptide substrate (3H-SAM Flashplate)
Conditions: Biochemical potencies, classification codes; read-out: Biochem IC50

Human CARM1 (PRMT4), sequence (Q86X55 other isoform, or with tags, fused parts or gaps isoform Q86X55-1): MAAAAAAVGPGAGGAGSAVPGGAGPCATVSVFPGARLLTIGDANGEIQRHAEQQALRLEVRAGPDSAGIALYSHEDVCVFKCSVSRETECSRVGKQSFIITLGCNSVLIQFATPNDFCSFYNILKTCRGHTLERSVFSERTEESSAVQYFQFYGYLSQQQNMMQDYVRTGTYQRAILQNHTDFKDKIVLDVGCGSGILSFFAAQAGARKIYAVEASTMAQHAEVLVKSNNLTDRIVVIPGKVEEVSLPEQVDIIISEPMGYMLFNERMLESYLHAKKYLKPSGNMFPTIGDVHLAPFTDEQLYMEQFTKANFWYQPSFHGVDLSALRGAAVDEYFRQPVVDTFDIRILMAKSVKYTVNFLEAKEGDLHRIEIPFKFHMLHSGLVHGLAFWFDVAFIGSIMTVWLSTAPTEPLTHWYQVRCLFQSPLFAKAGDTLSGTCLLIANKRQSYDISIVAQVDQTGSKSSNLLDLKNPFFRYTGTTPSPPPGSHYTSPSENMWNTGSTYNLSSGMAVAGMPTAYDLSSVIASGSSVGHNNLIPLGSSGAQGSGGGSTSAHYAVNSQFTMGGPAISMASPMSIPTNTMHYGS

Row | Structure (SMILES) | IC50 [nM]
1 | CNC[C@@H](O)COc1ccc(Cl)c(-c2nc(N[C@@H]3CCO[C@H](C)C3)c(C)c(-c3c(C)noc3C)n2)c1 [Example 132-3] | < 100
2 | CNCC(O)COc1cccc(-c2nc(-c3c(C)noc3C)cc(N3CCN(C(=O)C4CC4)CC3)n2)c1 (centres unmarked) [Example 133-1a] | < 100
3 | CCOC(=O)N1CCC[C@@H]1COc1nc(-c2cc(OC[C@H](O)CNC)ccc2Cl)nc(-c2c(C)noc2C)c1C [Example 133-3] | < 100
4 | CNCC(O)COc1cccc(-c2nc(-c3c(C)noc3C)c(C)c(N3CCN(C(=O)OCCOC)CC3)n2)c1 (centres unmarked) [Example 134-1a] | < 100
5 | CNC[C@@H](O)COc1ccc(Cl)c(-c2nc(NC[C@H]3COCCN3C(=O)OC(C)C)c(C)c(-c3c(C)noc3C)n2)c1 [Example 134-3] | < 100
6 | CNCC(O)COc1cccc(-c2nc(N[C@H]3CC[C@H](O)C3)c(C)c(-c3c(C)noc3C)n2)c1 (some centres unmarked) [Example 135-1a] | < 100
7 | CNC[C@@H](O)COc1ccc(Cl)c(-c2nc(N[C@@H]3CCN(C(=O)OC)[C@H](C)C3)c(C)c(-c3c(C)noc3C)n2)c1 [Example 135-3] | < 100
8 | CNCC(O)COc1cc(NC)cc(-c2nc(NC3CCOCC3)c(C)c(-c3c(C)noc3C)n2)c1 (centres unmarked) [Example 136-1a] | < 100
9 | CCOC(=O)N1CCC[C@@H]1CCNc1nc(-c2cc(OC[C@H](O)CNC)ccc2Cl)nc(-c2c(C)noc2C)c1C [Example 136-3] | < 100
10 | CNCC(O)COc1ccc(Cl)c(-c2nc(NC3(C)CCOCC3)c(Cl)c(-c3c(C)noc3C)n2)c1 (centres unmarked) [Example 137-1a] | < 100
11 | CCOC(=O)N1CCC[C@H]1CCNc1nc(-c2cc(OC[C@H](O)CNC)ccc2Cl)nc(-c2c(C)noc2C)c1C [Example 137-3] | < 100
12 | CNC[C@H](O)COc1ccc(Cl)c(-c2nc(-c3c(C)noc3C)c(C)c(N3CCC4(CCN(C5CC5)C4)C3)n2)c1 (some centres unmarked) [Example 138-1a] | < 100
13 | CNC[C@@H](O)COc1ccc(Cl)c(-c2nc(-c3c(C)noc3C)c(C)c(N3CCC4(CCN(C5CC5)C4)C3)n2)c1 (some centres unmarked) [Example 138-3] | < 100
14 | CNCC(O)COc1cccc(-c2nc(-c3c(C)noc3C)cc(N3CCN(CCOC)CC3)n2)c1 (centres unmarked) [Example 139-1a] | < 100
15 | CNC[C@@H](O)COc1ccc(Cl)c(-c2nc(N[C@@H]3CCN(C4CC4)[C@H](C)C3)c(C)c(-c3c(C)noc3C)n2)c1 [Example 139-3] | < 100
16 | CNCC(O)COc1cccc(-c2nc(NCC3(N(C)C)CCOCC3)c(C)c(-c3c(C)noc3C)n2)c1 (centres unmarked) [Example 140-1a] | < 100
17 | CNC[C@@H](O)COc1ccc(Cl)c(-c2nc(-c3c(C)noc3C)c(C)c(N3Cc4cnn(C)c4C3)n2)c1 [Example 140-3] | < 100
18 | CCC1(CNc2nc(-c3cccc(OCC(O)CNC)c3)nc(-c3c(C)noc3C)c2C)CCOCC1 (centres unmarked) [Example 141-1a] | < 100
19 | CNC[C@@H](O)COc1ccc(Cl)c(-c2nc(-c3c(C)noc3C)c(C)c(N3CCc4nc(C)sc4C3)n2)c1 [Example 141-3] | < 100
20 | CNCC(O)COc1cccc(-c2nc(NCC3CCOCC3)c(Cl)c(-c3c(C)noc3C)n2)c1 (centres unmarked) [Example 142-1a] | < 100
21 | CNC[C@@H](O)COc1ccc(Cl)c(-c2nc(-c3c(C)noc3C)c(C)c(N3Cc4nccnc4C3)n2)c1 [Example 142-3] | < 100
22 | CNCC(O)COc1cccc(-c2nc(NCC3CCOCC3)c(F)c(-c3c(C)noc3C)n2)c1 (centres unmarked) [Example 143-1a] | < 100

Row | Structure (SMILES) | IC50 [nM]
23 | CNC[C@@H](O)COc1ccc(Cl)c(-c2nc(N[C@H]3C[C@H](OC)C3)c(C)c(-c3c(C)noc3C)n2)c1 [Example 143-3] | < 100
24 | CNCC(O)COc1cccc(-c2nc(-c3c(C)noc3C)cc(N3CCN(CC(F)(F)F)[C@H](C)C3)n2)c1 (some centres unmarked) [Example 144-1a] | < 100
25 | CNC[C@@H](O)COc1ccc(Cl)c(-c2nc(N[C@H]3C[C@@H](OC)C3)c(C)c(-c3c(C)noc3C)n2)c1 [Example 144-3] | < 100
26 | CNCC(O)COc1cccc(-c2nc(-c3c(C)noc3C)cc(N3CCN(CCF)[C@H](C)C3)n2)c1 (some centres unmarked) [Example 145-1a] | < 100
27 | CNCC(O)COc1cccc(-c2nc(NC3CCOCC3)c(C)c(-c3c(C)noc3CO)n2)c1 (centres unmarked) [Example 145-3] | < 100
28 | CNCC(O)COc1cccc(-c2nc(-c3c(C)noc3C)cc(N3CCN(C(=O)N(C)C)[C@H](C)C3)n2)c1 (some centres unmarked) [Example 146-1a] | < 100
29 | CNC[C@@H](O)COc1ccc(Cl)c(-c2nc(NC3CC4(C3)CN(C(=O)OC)C4)c(C)c(-c3c(C)noc3C)n2)c1 [Example 146-3] | < 100
30 | CNCC(O)COc1cccc(-c2nc(-c3c(C)noc3C)cc(N3CCN(S(C)(=O)=O)[C@H](C)C3)n2)c1 (some centres unmarked) [Example 147-1a] | < 100
31 | CNC[C@@H](O)COc1ccc(Cl)c(-c2nc(N[C@H]3CCN(C)C[C@H]3F)c(C)c(-c3c(C)noc3C)n2)c1 [Example 147-3] | < 100
32 | CNCC(O)COc1cccc(-c2nc(-c3c(C)noc3C)c(C)c(N3CCO[C@@H](CN(C)C)C3)n2)c1 (some centres unmarked) [Example 148-1a] | < 100
33 | CNC[C@@H](O)COc1ccc(Cl)c(-c2nc(N[C@H]3CO[C@@H](C)C3)c(Cl)c(-c3c(C)noc3C)n2)c1 [Example 148-3] | < 100
34 | CNCC(O)COc1cccc(-c2nc(-c3c(C)noc3C)c(C)c(N3CCO[C@@H](CN(C)C(=O)OC)C3)n2)c1 (some centres unmarked) [Example 149-1a] | < 100
35 | CNC[C@@H](O)COc1ccc(Cl)c(-c2nc(N[C@H]3CCO[C@@H](C)C3)c(Cl)c(-c3c(C)noc3C)n2)c1 [Example 149-3] | < 100
36 | CNCC(O)COc1cccc(-c2nc(-c3c(C)noc3C)c(C)c(N3CCO[C@@H](CN(C)S(C)(=O)=O)C3)n2)c1 (some centres unmarked) [Example 150-1a] | < 100
37 | CCOC(=O)N1CC[C@H](Nc2nc(-c3cc(OC[C@H](O)CNC)ccc3Cl)nc(-c3c(C)noc3C)c2C)C1 [Example 150-3] | < 100
38 | CNCC(O)COc1cccc(-c2nc(-c3c(C)noc3C)c(C)c(N3CCO[C@H](CN(C)C)C3)n2)c1 (some centres unmarked) [Example 151-1a] | < 100
39 | CCOC(=O)N1CC[C@H](Nc2nc(-c3cc(OC[C@H](O)CNC)ccc3Cl)nc(-c3c(C)noc3C)c2Cl)C1 [Example 151-3] | < 100
40 | CC[C@@H]1CN(c2nc(-c3cccc(OCC(O)CNC)c3)nc(-c3c(C)noc3C)c2C)CCN1S(=O)(=O)CC (some centres unmarked) [Example 152-1a] | < 100
41 | CNC[C@@H](O)COc1ccc(Cl)c(-c2nc(N[C@H]3CO[C@@H](C)C3)c(C)c(-c3c(C)noc3C)n2)c1 [Example 152-3] | < 100
42 | CC[C@@H]1CN(c2nc(-c3cccc(OCC(O)CNC)c3)nc(-c3c(C)noc3C)c2C)CCN1S(C)(=O)=O (some centres unmarked) [Example 153-1a] | < 100
43 | CCOC(=O)N1CCCC[C@@H]1CNc1nc(-c2cc(OC[C@H](O)CNC)ccc2Cl)nc(-c2c(C)noc2C)c1Cl [Example 153-3] | < 100
44 | CC[C@H]1CN(c2nc(-c3cccc(OCC(O)CNC)c3)nc(-c3c(C)noc3C)c2C)CCN1S(=O)(=O)CC (some centres unmarked) [Example 154-1a] | < 100

Row | Structure (SMILES) | IC50 [nM]
45 | CCOC(=O)N1CCCC[C@@H]1CNc1nc(-c2cc(OC[C@H](O)CNC)ccc2Cl)nc(-c2c(C)noc2C)c1C [Example 154-3] | < 100
46 | CC[C@H]1CN(c2nc(-c3cccc(OCC(O)CNC)c3)nc(-c3c(C)noc3C)c2C)CCN1S(C)(=O)=O (some centres unmarked) [Example 155-1a] | < 100
47 | CNC[C@@H](O)COc1ccc(Cl)c(-c2nc(N[C@@H]3CCO[C@H](C)C3)c(Cl)c(-c3c(C)noc3C)n2)c1 [Example 155-3] | < 100
48 | CNC[C@@H](O)COc1cccc(-c2nc(-c3c(C)noc3C)c(C)c(-c3cn(S(C)(=O)=O)c4ncncc34)n2)c1 [Example 156-1a] | < 100
49 | CNC[C@@H](O)COc1ccc(Cl)c(-c2nc(-c3c(C)noc3C)c(C)c(N3Cc4cc(Cl)cnc4C3)n2)c1 [Example 156-3] | < 100
50 | CNCC(O)COc1cccc(-c2nc(NC(C)C3CCOCC3)c(C)c(-c3c(C)noc3C)n2)c1 (centres unmarked) [Example 157-1a] | < 100
51 | CNC[C@@H](O)COc1ccc(Cl)c(-c2nc(-c3c(C)noc3C)c(C)c(N3Cc4cc(F)cnc4C3)n2)c1 [Example 157-3] | < 100
52 | CNC[C@@H](O)COc1ccc(Cl)c(-c2nc(-c3c(C)noc3C)c(C)c(N3CCC4(CC3)CN(C3CC3)C4)n2)c1 [Example 158-3] | < 100
53 | CNCC(O)COc1cccc(-c2nc(NC3(C)CCOCC3)c(F)c(-c3c(C)noc3C)n2)c1 (centres unmarked) [Example 159-1a] | < 100
54 | CNC[C@@H](O)COc1ccc(Cl)c(-c2nc(-c3c(C)noc3C)c(C)c(N3Cc4ccncc4C3)n2)c1 [Example 159-3] | < 100
55 | CNCC(O)COc1cccc(-c2nc(C(=O)NC3CCN(C)CC3)cc(-c3c(C)noc3C)n2)c1 (centres unmarked) [Example 160-1a] | < 100
56 | CNC[C@@H](O)COc1ccc(Cl)c(-c2nc(NC[C@H]3CCCN3C(=O)OC(C)C)c(C)c(-c3c(C)noc3C)n2)c1 [Example 160-3] | < 100
57 | CNCC(O)COc1cccc(-c2nc(-c3c(C)noc3C)c(C)c(N3CCN(C(=O)OCC(F)F)CC3)n2)c1 (centres unmarked) [Example 161-1a] | < 100
58 | CCOC(=O)N1CCOC[C@@H]1COc1nc(-c2cc(OC[C@H](O)CNC)ccc2Cl)nc(-c2c(C)noc2C)c1C [Example 161-3] | < 100
59 | CNCC(O)COc1cccc(-c2nc(-c3c(C)noc3C)c(C)c(N3CC[C@H](C(=O)N(C)C)C3)n2)c1 (some centres unmarked) [Example 162-1a] | < 100
60 | CNC[C@@H](O)COc1ccc(Cl)c(-c2nc(N[C@@H]3CO[C@@H](C)C3)c(C)c(-c3c(C)noc3C)n2)c1 [Example 162-3] | < 100
61 | CNCC(O)COc1cccc(-c2nc(N[C@@H]3CC[C@H](O)C3)c(C)c(-c3c(C)noc3C)n2)c1 (some centres unmarked) [Example 163-1a] | < 100
62 | CNC[C@@H](O)COc1ccc(Cl)c(-c2nc(-c3c(C)noc3C)c(C)c(N3CC(CO)(CO)C3)n2)c1 [Example 163-3] | < 100
63 | CNCC(O)COc1cccc(-c2nc(-c3c(C)noc3C)c(C)c(N3C[C@@H](C)O[C@@H](C)C3)n2)c1 (some centres unmarked) [Example 164-1a] | < 100
64 | CNC[C@@H](O)COc1ccc(F)c(-c2nc(-c3c(C)noc3C)c(C)c(N3Cc4cc(F)cnc4C3)n2)c1 [Example 164-3] | < 100
65 | CNCC(O)COc1cccc(-c2nc(-c3c(C)noc3C)cc(N3CCN(n4c(C)nnc4C)CC3)n2)c1 (centres unmarked) [Example 165-1a] | < 100
